Laboratory results taken from patent publication US5053333A, “Protease” (M & D Research Co., Ltd., priority 1988, dated 1991).
Where two headings read alike, the source gives them in different places. Numbered stars: 1 amine (or outer) side, 2 acyl side, 3 side chain; on linkers, the order of the positions; unused ones are H or OH. Square brackets hold non-standard residues; d marks the D form. Peptide text beside a SMILES is read from it. * marks the point of attachment. Sta = CC(C)C[C@H](N)[C@@H](O)CC(=O)O; AMC = Cc1cc(=O)oc2cc(N*)ccc12; Suc = O=C(CCC(=O)[*:2])[*:1]; Isovaleryl = CC(C)CC(=O)*; Cbz = O=C(OCc1ccccc1)*; Boc = CC(C)(C)OC(=O)*; CO = O=C([*:1])[*:2]; OBn = c1ccc(CO*)cc1

Assays:
[1] = tested on: Benz-I (protease specific for basic amino acid residue); assay: Behavior of Benz-I against various inhibitors (residual activity); assay type: biochemical, Kluyveromyces lactis IFO 1903
[2] = tested on: Benz-II (protease specific for basic amino acid residue); assay: Behavior of Benz-II against various inhibitors (residual activity); assay type: biochemical, Kluyveromyces lactis IFO 1903
[3] = tested on: protease specific for basic amino acid residue from Sporobolomyces odrus IFO 1597; assay: Behavior of Sporobolomyces protease against various inhibitors (residual activity); assay type: biochemical; settings: 25° C. 30 minutes
[4] = tested on: protease specific for basic amino acid residue from Sporobolomyces odrus IFO 1597; assay: Substrate specificity of Sporobolomyces protease with fluorescent substrates; assay type: biochemical; settings: activity for Boc-Gln-Arg-Arg-MCA being 100; standard conditions
Method: A reaction mixture containing 50 μmol of tris hydrochloride buffer solution (pH 7.0), 10 mg of Lubrol PX, 0.5 μmol of calcium chloride, 0.1 μmol of Boc-Gln-Arg-Arg-MCA, wherein Boc represents a t-butyloxycalbonyl group while MCA represents 4-methylcoumarin-7-amide and the enzyme is allowed to react at 30° C. The fluorescence (excition wavelength: 380 nm, emission wavelength: 460 nm) originating from the 7-amino-4-methylcoumarin (AMC) thus formed is monitored. The amount of the enzyme capable of catalyzing the release of 1 nmol of AMC per one minute is defined as 1 U.
The activities of the enzyme for various fluorescent substrates were determined under standard reaction conditions.

[5] = tested on: Benz-I (protease specific for basic amino acid residue); assay: Substrate specificity of Benz-I with fluorescent substrates; assay type: biochemical, Kluyveromyces lactis IFO 1903; settings: activity for Boc-Gln-Arg-Arg-MCA being 100; standard conditions
Method: (§1) 1 ml of a reaction mixture containing 50 μmol of Tris-hydrochloride buffer (pH 7.0), 10 mg of Lubrol PX, 0.5 μmol of calcium chloride, 0.1 μmol of Boc-Gln-Arg-Arg-MCA, wherein Boc represents a t-butyloxycarbonyl group while MCA represents 4-methylcoumarin-7-amide and the enzyme is allowed to react at 30° C. The fluorescence (excition wavelength: 380 nm, emmision wavelength: 460 nm) originating from the 7-amino-4-methylcoumarin (AMC) thus formed is monitored with the lapse of time. The amount of the enzyme activity capable of catalyzing the release of 1 n mol of AMC per one minute is defined as 1 U. The specific activity is represented by U per mg of protein. The amount of the protein is determined by measurement the absorbance at […] as E^1% of protein being assumed to be 10.
(§2) The activities of Benz-I and Benz-II were determined under standard conditions with the use of various fluorescent substrates. The activity for each substrate was expressed by relative activity with the activity for Boc-Gln-Arg-Arg-MCA being 100.

[6] = tested on: Benz-II (protease specific for basic amino acid residue); assay: Substrate specificity of Benz-II with fluorescent substrates; assay type: biochemical, Kluyveromyces lactis IFO 1903; settings: activity for Boc-Gln-Arg-Arg-MCA being 100; standard conditions
Method: as §1, §2

[7] = inhibitor 5 mM, 25° C. 30 minutes, control lot = 100
[8] = inhibitor 1 mM, 25° C. 30 minutes, control lot = 100
[9] = inhibitor 10 μM, 25° C. 30 minutes, control lot = 100
[10] = inhibitor 0.1%, 25° C. 30 minutes, control lot = 100
[11] = inhibitor 0.2 mM, 25° C. 30 minutes, control lot = 100
[12] = inhibitor 4 M, 25° C. 30 minutes, control lot = 100

CCCCC(NC(=O)C=[N+]=[N-])C(=O)OC (racemic) [diazoacetyl-DL-norleucine methyl ester]
Residual activity of Benz-I [1, 7]: 85 | Residual activity of Benz-II [2, 7]: 73 | relative activity (residual) ([3]; Ca2+ +, inhibitor 5 mM): 72%

O[C@H](CS)[C@H](O)CS (racemic) [dithiothreitol]
Residual activity of Benz-I [1, 8]: 96 | Residual activity of Benz-II [2, 8]: 128 | relative activity (residual) ([3]; Ca2+ +, inhibitor 1 mM): 97%

OCCS [2-mercaptoethanol]
Residual activity of Benz-I [1, 8]: 112 | Residual activity of Benz-II [2, 8]: 153 | relative activity (residual) ([3]; Ca2+ +, inhibitor 1 mM): 95%

Cc1cc(=O)oc2cc(NC(=O)[C@@H](N)CCCNC(=N)N)ccc12 [Arg--MCA]
Activity (relative) for substrate [4]: < 1%

Cc1cc(=O)oc2cc(NC(=O)[C@H](CCCNC(=N)N)NC(=O)[C@@H]3CCCN3C(=O)CNC(=O)[C@H](C)NC(=O)OC(C)(C)C)ccc12 [Boc--Ala--Gly--Pro--Arg--MCA] (Boc-AGPR-{AMC})
Relative activity of Benz-I for substrate [5]: 1.9 | Relative activity of Benz-II for substrate [6]: 1.6 | Activity (relative) for substrate [4]: 1%

Cc1cc(=O)oc2cc(NC(=O)[C@H](CCCNC(=N)N)NC(=O)[C@@H]3CCCN3C(=O)[C@H](CC(=O)OCc3ccccc3)NC(=O)OC(C)(C)C)ccc12 [Boc--Asp(OBzl)--Pro--Arg--MCA] (Boc-Asp(OBn)-Pro-Arg-{AMC})
Relative activity of Benz-I for substrate [5]: 12.3 | Relative activity of Benz-II for substrate [6]: 7.8 | Activity (relative) for substrate [4]: 5%

CC[C@H](C)[C@H](NC(=O)OC(C)(C)C)C(=O)N[C@@H](CCC(=O)O)C(=O)NCC(=O)N[C@@H](CCCNC(=N)N)C(=O)Nc1ccc2c(C)cc(=O)oc2c1 [Boc--Ile--Glu--Gly--Arg--MCA] (Boc-IEGR-{AMC})
Activity (relative) for substrate [4]: 5%

Cc1cc(=O)oc2cc(NC(=O)[C@H](CCCNC(=N)N)NC(=O)CNC(=O)[C@H](CC(C)C)NC(=O)OC(C)(C)C)ccc12 [Boc--Leu--Gly--Arg--MCA] (Boc-Leu-Gly-Arg-{AMC})
Activity (relative) for substrate [4]: 1%

Cc1cc(=O)oc2cc(NC(=O)[C@H](CCCCN)NC(=O)[C@H](CC(C)C)NC(=O)[C@@H](NC(=O)OC(C)(C)C)C(C)C)ccc12 [Boc--Val--Leu--Lys--MCA] (Boc-Val-Leu-Lys-{AMC})
Activity (relative) for substrate [4]: 0%

Cc1cc(=O)oc2cc(NC(=O)[C@H](CCCNC(=N)N)NC(=O)c3ccccc3)ccc12 [Bz--Arg--MCA]
Activity (relative) for substrate [4]: 0%

CC(C)C[C@H](NC(=O)[C@H]1O[C@@H]1C(=O)O)C(=O)NCCCCNC(=N)N [E-64]
Residual activity of Benz-I [1, 9]: 99 | Residual activity of Benz-II [2, 9]: 96 | relative activity (residual) ([3]; Ca2+ +, inhibitor 10 μM): 100%

Cc1cc(=O)oc2cc(NC(=O)[C@@H](N)CC(C)C)ccc12 [Leu--MCA]
Activity (relative) for substrate [4]: < 1%

CCN1C(=O)C=CC1=O [N-ethylmaleimide]
Residual activity of Benz-I [1, 8]: 101 | Residual activity of Benz-II [2, 8]: 94 | relative activity (residual) ([3]; Ca2+ +, inhibitor 1 mM): 125%

Cc1cc(=O)oc2cc(NC(=O)[C@H](CCCNC(=N)N)NC(=O)[C@H](Cc3ccccc3)NC(=O)[C@@H]3CCCN3)ccc12 [Pro--Phe--Arg--MCA] (H-Pro-Phe-Arg-{AMC})
Activity (relative) for substrate [4]: 0%

Cc1cc(=O)oc2cc(NC(=O)[C@H](Cc3ccccc3)NC(=O)[C@@H]3CCCN3C(=O)[C@H](C)NC(=O)[C@H](C)NC(=O)CCC(=O)O)ccc12 [Suc--Ala--Ala--Pro--Phe--MCA] (Suc-AAPF-{AMC})
Activity (relative) for substrate [4]: < 1%

Cc1cc(=O)oc2cc(NC(=O)[C@H](C)NC(=O)[C@@H]3CCCN3C(=O)[C@H](C)NC(=O)CCC(=O)O)ccc12 [Suc--Ala--Pro--Ala--MCA] (Suc-Ala-Pro-Ala-{AMC})
Activity (relative) for substrate [4]: 0%

Cc1cc(=O)oc2cc(NC(=O)[C@@H]3CCCN3C(=O)CNC(=O)CCC(=O)O)ccc12 [Suc--Gly--Pro--MCA] (Suc-Gly-Pro-{AMC})
Activity (relative) for substrate [4]: 0%

Cc1cc(=O)oc2cc(NC(=O)[C@H](Cc3ccc(O)cc3)NC(=O)[C@@H](NC(=O)[C@H](CC(C)C)NC(=O)[C@H](CC(C)C)NC(=O)CCC(=O)O)C(C)C)ccc12 [Suc--Leu--Leu--Val--Tyr--MCA] (Suc-LLVY-{AMC})
Activity (relative) for substrate [4]: 0%

Cc1cc(=O)oc2cc(NC(=O)[C@H](CCCNC(=N)N)NC(=O)[C@H](CCCNC(=N)N)NC(=O)OCc3ccccc3)ccc12 [Z--Arg--Arg--MCA] (Cbz-Arg-Arg-{AMC})
Activity (relative) for substrate [4]: 0%

CC(C)[C@H](NC(=O)[C@H](CCCNC(=N)N)NC(=O)N[C@@H](Cc1ccccc1)C(=O)O)C(=O)N[C@H](C=O)CCCNC(=N)N [antipain] ({Phe-CO}-Arg-Val-Arg-aldehyde)
Residual activity of Benz-I [1, 9]: 89 | Residual activity of Benz-II [2, 9]: 88 | relative activity (residual) ([3]; Ca2+ +, inhibitor 10 μM): 70%

N=C(N)c1ccccc1 [benzamidine]
Residual activity of Benz-I [1, 8]: 79 | Residual activity of Benz-II [2, 8]: 82 | relative activity (residual) ([3]; Ca2+ +, inhibitor 1 mM): 82%

CC(C)C[C@H](NC(=O)[C@@H](O)[C@H](N)Cc1ccccc1)C(=O)O [bestatin]
Residual activity of Benz-I [1, 9]: 95 | Residual activity of Benz-II [2, 9]: 97 | relative activity (residual) ([3]; Ca2+ +, inhibitor 10 μM): 97%

NC(=O)CI [iodoacetamide]
Residual activity of Benz-I [1, 8]: 92 | Residual activity of Benz-II [2, 8]: 87 | relative activity (residual) ([3]; Ca2+ +, inhibitor 1 mM): 96%

O=C(O)CI [iodoacetic acid]
Residual activity of Benz-I [1]: 99 | Residual activity of Benz-II [2]: 93

CC(=O)N[C@@H](CC(C)C)C(=O)N[C@@H](CC(C)C)C(=O)N[C@H](C=O)CCCNC(=N)N [leupeptin]
Residual activity of Benz-I [1, 9]: 93 | Residual activity of Benz-II [2, 9]: 96 | relative activity (residual) ([3]; Ca2+ +, inhibitor 10 μM): 92%

c1cnc2c(c1)ccc1cccnc12 [o-phenanthroline]
Residual activity of Benz-I [1, 8]: 96 | Residual activity of Benz-II [2, 8]: 86 | relative activity (residual) ([3]; Ca2+ --, inhibitor 1 mM): 91%

CC(C)CC(=O)N[C@H](C(=O)N[C@H](C(=O)N[C@@H](CC(C)C)[C@@H](O)CC(=O)N[C@@H](C)C(=O)N[C@@H](CC(C)C)[C@@H](O)CC(=O)O)C(C)C)C(C)C [pepstatin A] (Isovaleryl-VV[Sta]A[Sta]-OH)
Residual activity of Benz-I [1, 9]: 100 | Residual activity of Benz-II [2, 9]: 96 | relative activity (residual) ([3]; Ca2+ +, inhibitor 10 μM): 104%

O=S(=O)(F)Cc1ccccc1 [phenylmethanesulfonyl fluoride]
Residual activity of Benz-I [1, 8]: 107 | Residual activity of Benz-II [2, 8]: 103 | relative activity (residual) ([3]; Ca2+ +, inhibitor 1 mM): 112%

CC(C)C[C@H](NP(=O)(O)O[C@@H]1O[C@@H](C)[C@H](O)[C@@H](O)[C@H]1O)C(=O)N[C@@H](Cc1c[nH]c2ccccc12)C(=O)O [phosphoramidon]
Residual activity of Benz-I [1, 9]: 101 | Residual activity of Benz-II [2, 9]: 93 | relative activity (residual) ([3]; Ca2+ +, inhibitor 10 μM): 100%

CCCCCCCCCCCCOS(=O)(=O)[O-].[Na+] [sodium dodecyl sulfate]
Residual activity of Benz-I [1, 10]: 94 | Residual activity of Benz-II [2, 10]: 91

Cc1ccc(S(=O)(=O)NC(CCCCN)C(=O)CCl)cc1 (stereo not drawn) [tosyllysine chloromethyl ketone]
Residual activity of Benz-I [1, 11]: 98 | Residual activity of Benz-II [2, 11]: 95 | relative activity (residual) ([3]; Ca2+ +, inhibitor 0.2 mM): 108%

NC(N)=O [urea]
Residual activity of Benz-I [1, 12]: 23 | Residual activity of Benz-II [2, 12]: 29

chymostatin
Residual activity of Benz-I [1, 9]: 98 | Residual activity of Benz-II [2, 9]: 99 | relative activity (residual) ([3]; Ca2+ +, inhibitor 10 μM): 98%
